The text below walks through data of patent US20060223812A1, “Treating neurodegenerative conditions” (MAX-PLANCK-GESELLSCHAFT ZUR FORDERUNGDER WISSENSCHAFTEN, …, priority 2004, published 2006).

The test system of experiment [1] is N2a cells expressing K18/ΔK280. Put plainly: Tau aggregation in cells, thioflavine S staining. In kind it is cell-based, mouse. As to conditions: 15 μM emodin. As for the experimental part: The tau construct K18/ΔK280 was expressed in the mouse neuroblastoma cell line N2a in an inducible manner under the control of the reverse tetracycline-controlled transactivator (rtTA) as described elsewhere (Gossen & Bujard, 2002). The inducible N2a/K18ΔK280 cells were cultured in MEM medium supplemented with 10% fetal calf serum, 2 mM glutamine and 0.1% nonessential amino acids. The expression of K18/ΔK280 was induced by addition 1 μg doxycyclin per 1 ml medium. The effect of aggregation inhibition was observed by adding the inhibitor emodin (15 μM). After 3-7 days the cells were harvested and tested for tau aggregation, thioflavin S fluorescence, and viability.
The levels and solubility of the K18/ΔK280 tau protein were determined by the method of Greenberg and Davies (1990) which makes use of the insolubility of protein aggregates after treatment with sarkosyl. The supernatant and sarcosyl-insoluble pellets were analysed by Western blotting with the pan-tau antibody K9JA and analysed by densitometry. Aggregation of tau in cells was tested by the fluorescence of thioflavine S. ThS signals were scored in three independent fields containing 40 cells each.
Two parallel cell cultures were incubated, one with 1 μg/ml doxycyclin (to induce the expression of the protein), another with 1 μg/ml doxycyclin and 15 μM emodin for 3 days. […]

The target in the next experiment is T1, PHFs from htau23 (Homo sapiens, UniProt P10636).
T1 construct: made in house; host or cells: E. coli
Put plainly: Filter trapping assay, depolymerisation of PHFs. In kind it is biochemical. As to conditions: PVDF filter, antibody K9JA. The protocol: The effect of compounds on the depolymerisation of PHFs was analysed using a filter trapping assay. This assay monitors aggregated tau which is trapped on a membrane filter, whereas the soluble protein is washed through. Therefore the technique preferably detects larger filaments, similar to the ThS assay.
Aggregates of tau were trapped by filtration through a PVDF-membrane (pore diameter 0.45 μm, Schleicher and Schuell, Düren, Germany) adapted to 96-well dot blot apparatus. The PVDF-membrane was wetted with methanol and rinsed with PBS-buffer before incorporated into the dot blot apparatus. The samples were pipetted into 100 μl of PBS and filtered. The membrane was washed three times with PBS before taken out of the apparatus and blocked with 5% milk powder in PBS for 30 minutes in a rotational shaker at room temperature. The polyclonal antibody K9JA was used as primary antibody and incubated at a dilution of 1:20.000 at room temperature for one hour. […] After three times washing with TBS-Tween the signal was detected using the ECL system (Amersham Pharmacia) and pictures were taken with the digital gel documentation system Fuji film BAS3000 (Raytest, Straubenhardt, Germany). Quantification of the signals was performed with the AIDA-software package (Raytest, Straubenhardt, Germany).
(D) Depolymerisation of PHFs from htau23 measured by filter assay. […]

The test system of experiment [2] is N2a cells expressing K18/ΔK280. Kind of experiment: Tau aggregation in cells, sarkosyl extraction and Western blot densitometry. Type of experiment: cell-based, mouse. The following applies: 15 μM emodin. From the text:
A crucial test for the application of inhibitors is their effect in cell models of tauopathy. A neuroblastoma (N2a) cell line which allows inducible expression of the tau construct K18ΔK280 under the control of the tet-on transactivator was generated. This construct was chosen because it contains the FTDP17 mutation ΔK280 in the 4-repeat domain K18 which promotes the formation of β-structure and therefore aggregates readily, even in the absence of polyanionic inducers (von Bergen et al., 2001; {Barghorn, 2002).
The tau construct K18/ΔK280 was expressed in the mouse neuroblastoma cell line N2a in an inducible manner under the control of the reverse tetracycline-controlled transactivator (rtTA) as described elsewhere (Gossen & Bujard, 2002). […] After 3-7 days the cells were harvested and tested for tau aggregation, thioflavin S fluorescence, and viability.
The levels and solubility of the K18/ΔK280 tau protein were determined by the method of Greenberg and Davies (1990) which makes use of the insolubility of protein aggregates after treatment with sarkosyl. The supernatant and sarcosyl-insoluble pellets were analysed by Western blotting with the pan-tau antibody K9JA and analysed by densitometry. Aggregation of tau in cells was tested by the fluorescence of thioflavine S. ThS signals were scored in three independent fields containing 40 cells each. […]

The next experiment deals with K18 filaments (Y310W). Kind of experiment: Tryptophan fluorescence depolymerisation assay, K18 filaments. Type of experiment: biochemical, human. The following applies: 60 μM compound. The protocol:
For the fluorescence depolymerisation assay, 60 μM inhibitor compound were added to pre-formed PHFs (10 μM) and incubated overnight at 37° C. PHFs were formed by incubation of tau construct K19/Y310W (50 μM) or K18/ΔK280/Y310W with 12.5 μM heparin in volume of 100 μl at 37° C. in PBS, pH 7.4. Incubation time was three days. The formation of aggregates was observed as a shift of the emission maximum from ˜354 nm to ˜340 nm.
All other compounds yielded emission maxima of the protein after treatment around 350-353 nm, close to the value of soluble tau, indicating a depolymerisation efficiency of about 80-90%.
FIG. 5: Disassembly of preformed PHFs measured by tryptophan fluorescence shift assay and filter assay. Experiments were performed with tau constructs containing the Y310W mutation as in FIG. 3.

The next experiment addresses T2, K19 PHFs (Homo sapiens, UniProt P10636).
T2 construct: construct K19 containing three repeats; made in house; host or cells: E. coli
Kind of experiment: Depolymerisation of K19 PHFs at prolonged incubation times. In kind it is biochemical. As to conditions: 0.5 μM compound, after 12 hours. The protocol: Untreated controls were measured in parallel and subtracted as background.

T2 sequence (P10636 with tags, fused parts or gaps isoform P10636-2 limits assumed): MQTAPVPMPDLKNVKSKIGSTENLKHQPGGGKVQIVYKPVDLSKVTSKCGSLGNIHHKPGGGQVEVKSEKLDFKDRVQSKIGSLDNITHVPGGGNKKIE
T1 sequence (P10636 1-352 isoform P10636-2): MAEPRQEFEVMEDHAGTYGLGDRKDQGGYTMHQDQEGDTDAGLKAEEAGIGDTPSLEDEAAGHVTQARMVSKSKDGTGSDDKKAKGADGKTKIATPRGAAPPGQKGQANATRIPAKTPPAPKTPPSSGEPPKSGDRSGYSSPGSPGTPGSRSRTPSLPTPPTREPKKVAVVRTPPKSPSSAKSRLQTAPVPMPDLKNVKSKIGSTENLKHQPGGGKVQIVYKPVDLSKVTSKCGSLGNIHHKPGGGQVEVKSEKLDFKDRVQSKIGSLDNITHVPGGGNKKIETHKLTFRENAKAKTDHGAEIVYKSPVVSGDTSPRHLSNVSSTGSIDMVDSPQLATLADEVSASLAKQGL

On to `Cc1cc(O)c2c(c1)C(=O)c1cc(O)cc(O)c1C2=O` [Emodin, 1,3,8-Trihydroxy-6-methyl-anthraquinone], for which, in experiment [1], the “inhibition of aggregation as measured by ThS” value was “about 2 fold”. For the same molecule, in experiment [1] (3 days induction, without emodin 28%), the “cells with ThS signal” value is 15%. The DC50 on PHFs from htau23 was about 500 nM. The “reduction of sarkosyl-insoluble fraction” value in experiment [2] (7 days) is 5 fold. In addition, the “sarkosyl-insoluble fraction of total cellular tau (K18/ΔK280)” value in experiment [2] (7 days induction, untreated 14%) worked out at 3%.
Take `O=C(c1ccccc1)c1ccc(O)c(O)c1O` [PHF005, 1-Phenyl-1-(2,3,4-trihydroxy-phenyl)-methanone]: the “depolymerisation efficiency, K18 filaments, Trp fluorescence” value with K18 filaments (Y310W) is 80%. For the same molecule, the “depolymerisation of K19 PHFs” value on K19 PHFs is “Nearly no effects”.
